Measurements as given in US20070128217A1 (priority 2003, published 2007).

Key:
[1] = tested on: control sera (pooled serum of ten healthy LUMC hospital workers; commercial negative donor pooled serum from the Dutch bloodbank); format: binding, human; set-up: Binding of Control serum LUMC to linear peptides / Binding of Control serum Blood-bank to linear peptides / Binding of Control serum LUMC to looped peptides / Binding of Control Serum Blood-Bank to Looped peptides / Binding of Control serum LUMC to linear peptides of the protein M of SARS-CoV Urbani / Binding of Control serum Blood-bank to linear peptides of the protein M of SARS-CoV Urbani / Binding of Control serum LUMC to looped peptides of the protein M of SARS-CoV Urbani / Binding of Control Serum Blood-Bank to Looped peptides of the protein M of SARS-CoV Urbani: unit not given here
[2] = tested on: recombinant human anti-SARS-CoV antibody 03-018; format: binding; set-up: Binding of antibody 03-018 to linear peptides of the N protein of SARS-CoV Urbani / Binding of antibody 03-018 to looped/cyclic peptides of the N protein of SARS-CoV Urbani: unit not given here
[3] = tested on: rabbit serum obtained by immunizing a rabbit with the SARS-CoV strain Frankfurt 1; format: binding; set-up: Binding of a rabbit serum to linear peptides / Binding of a rabbit serum to looped peptides / Rabbit serum linear peptides / Rabbit serum looped peptides / Binding of a rabbit serum to linear peptides of protein N of SARS-CoV Urbani (Rabbit serum linear peptides) / Binding of a rabbit serum to looped/cyclic peptides of protein N of SARS-CoV Urbani (Rabbit serum looped peptides): unit not given here
[4] = tested on: antibodies in sera from SARS patients (sera 1a, 1b, 2, 6, 37, 62, London, SARS-yellow, SARS-green); format: binding, human; set-up: Binding of serum 6 to linear peptides of protein X1 of SARS-CoV Urbani / Binding of serum 37 to linear peptides of protein X1 of SARS-CoV Urbani / Binding of serum 6 to looped/cyclic peptide (PEPSCAN-ELISA) / Binding of serum 37 to looped/cyclic peptide (PEPSCAN-ELISA) / Binding of serum 37 to looped/cyclic peptides of protein X1 of SARS-CoV Urbani / Binding of serum 6 to linear peptides of protein X2 / Binding of serum 37 to linear peptides of protein X2 / Binding of serum 37 to looped/cyclic peptides of protein X2 of SARS-CoV Urbani / Binding of serum 6 to linear peptides of protein M of SARS-CoV Urbani / Binding of serum 37 to linear peptides of protein M of SARS-CoV Urbani / Binding of serum 6 to looped/cyclic peptides of protein M of SARS-CoV Urbani / Binding of serum 37 to looped/cyclic peptides of protein M of SARS-CoV Urbani / Binding of serum 6 to linear peptides of protein X3 of SARS-CoV Urbani / Binding of serum 37 to linear peptides of protein X3 of SARS-CoV Urbani / Binding of serum 37 to looped/cyclic peptides of protein X3 of SARS-CoV Urbani / Binding of serum 6 to linear peptides of protein X4 of SARS-CoV Urbani / Binding of serum 37 to linear peptides of protein X4 of SARS-CoV Urbani / Binding of serum 37 to looped/cyclic peptides of protein X4 of SARS-CoV Urbani / Binding of serum 6 to linear peptides of protein X5 of SARS-CoV Urbani / Binding of serum 37 to linear peptides of protein X5 of SARS-CoV Urbani / Binding of serum 37 to looped/cyclic peptides of protein X5 of SARS-CoV Urbani / Binding of serum 6 to linear peptides of protein N of SARS-CoV Urbani / Binding of serum 37 to linear peptides of protein N of SARS-CoV Urbani / Binding of serum 6 to linear peptide (PEPSCAN-ELISA) / Binding of serum 1a to looped/cyclic peptides of protein N of SARS-CoV Urbani / Binding of serum 1b to looped/cyclic peptides of protein N of SARS-CoV Urbani / Binding of serum 2 to looped/cyclic peptides of protein N of SARS-CoV Urbani / Binding of serum 6 to looped/cyclic peptides of protein N of SARS-CoV Urbani / Binding of serum 37 to looped/cyclic peptides of protein N of SARS-CoV Urbani / Binding of serum 62 to looped/cyclic peptides of protein N of SARS-CoV Urbani / Binding of serum London to looped/cyclic peptides of protein N of SARS-CoV Urbani / Binding of serum SARS-green to looped/cyclic peptides of protein N of SARS-CoV Urbani: unit not given here

Row | Sequence | Binding of Control Serum Blood-Bank to Looped peptides [1] | Binding of Control serum Blood-bank to linear peptides [1] | Binding of Control serum LUMC to linear peptides [1] | Binding of Control serum LUMC to looped peptides [1] | Binding of antibody 03-018 to linear peptides of the N protein of SARS-CoV Urbani [2] | Binding of antibody 03-018 to looped/cyclic peptides of the N protein of SARS-CoV Urbani [2] | Binding of a rabbit serum to linear peptides of protein N of SARS-CoV Urbani (Rabbit serum linear peptides) [3] | Binding of a rabbit serum to looped/cyclic peptides of protein N of SARS-CoV Urbani (Rabbit serum looped peptides) [3] | Binding of serum 1a to looped/cyclic peptides of protein N of SARS-CoV Urbani [4] | Binding of serum 1b to looped/cyclic peptides of protein N of SARS-CoV Urbani [4] | Binding of serum 2 to looped/cyclic peptides of protein N of SARS-CoV Urbani [4] | Binding of serum 6 to looped/cyclic peptides of protein N of SARS-CoV Urbani [4] | Binding of serum 37 to looped/cyclic peptides of protein N of SARS-CoV Urbani [4] | Binding of serum 62 to looped/cyclic peptides of protein N of SARS-CoV Urbani [4] | Binding of serum London to looped/cyclic peptides of protein N of SARS-CoV Urbani [4] | Binding of serum SARS-green to looped/cyclic peptides of protein N of SARS-CoV Urbani [4] | Binding of serum SARS-yellow to looped/cyclic peptides of protein N of SARS-CoV Urbani [4] | other results
1 | RGQGVPINTNSGPDD | 0.4 | 0.5 | 0.5 | 0.4 | 0.1 | 0.2 | 0.1 | 0.0 | 0.2 | 0.1 | 0.2 | 0.1 | 0.3 | 0.2 | 0.2 | 0.2 | 0.0 | Binding of serum 1a to linear peptides of protein N of SARS-CoV Urbani [4]: 0.2; Binding of serum 1b to linear peptides of protein N of SARS-CoV Urbani [4]: 0.1; Binding of serum 2 to linear peptides of protein N of SARS-CoV Urbani [4]: 0.1; Binding of serum 6 to linear peptides of protein N of SARS-CoV Urbani [4]: 0.1; Binding of serum 37 to linear peptides of protein N of SARS-CoV Urbani [4]: 0.3; Binding of serum 62 to linear peptides of protein N of SARS-CoV Urbani [4]: 0.4; Binding of serum London to linear peptides of protein N of SARS-CoV Urbani [4]: 0.4; Binding of serum SARS-green to linear peptides of protein N of SARS-CoV Urbani [4]: 0.4; Binding of serum SARS-yellow to linear peptides of protein N of SARS-CoV Urbani [4]: 0.6
2 | RLNQLESKVSGKGQQ | 0.6 | 0.8 | 0.7 | 0.7 | 0.1 | 0.2 | 0.2 | 0.6 | 0.4 | 0.3 | 0.5 | 0.4 | 0.6 | 0.7 | 0.4 | 0.4 | 0.8 | Binding of serum 1a to linear peptide (PEPSCAN-ELISA) [4]: 0.3; Binding of serum 1b to linear peptide (PEPSCAN-ELISA) [4]: 0.2; Binding of serum 2 to linear peptide (PEPSCAN-ELISA) [4]: 0.3; Binding of serum 6 to linear peptide (PEPSCAN-ELISA) [4]: 0.2; Binding of serum 37 to linear peptide (PEPSCAN-ELISA) [4]: 0.7; Binding of serum 62 to linear peptide (PEPSCAN-ELISA) [4]: 0.9; Binding of serum London to linear peptide (PEPSCAN-ELISA) [4]: 0.6; Binding of serum SARS-green to linear peptide (PEPSCAN-ELISA) [4]: 0.4; Binding of serum SARS-yellow to linear peptide (PEPSCAN-ELISA) [4]: 0.7
